Data reported in paper PMC6271933, “Evaluation of the Toxicity of 5-Aryl-2-Aminoimidazole-Based Biofilm Inhibitors against Eukaryotic Cell Lines, Bone Cells and the Nematode Caenorhabditis elegans” (Molecules, 2014).
Several values for one entry are separate records, joined by “and”; a condition that tells them apart may be missing. Equal values may be shown once. Entries after “also recorded” stand apart in the source; their conditions may differ.

Key:
[1] = tested on: epidermal growth factor-stimulated DNA synthesis in squamous cell tumors; conditions: compared with naamidine A; cited from earlier work
[2] = tested on: human T-lymphocyte (CEM); assay: Cytostatic activity against tumor cell lines (cell number by Coulter counter); assay type: cell-based; conditions: 72 h, concentration inhibiting cell proliferation by 50%, three days incubation, mean of three repeats
Method: (§1) The IC50 was defined as the compound concentration required to inhibit cell proliferation by 50%. The therapeutic index (TI) was calculated as the ratio of the compound concentration producing toxicity (IC50) to the concentration needed to exert the desired ‘therapeutic’ effect on biofilms of Salmonella and Pseudomonas, indicated by the BIC50 (dose needed to prevent biofilm formation by 50%). The higher the therapeutic index, the broader the safety window of the compound.
(§2) Murine leukemia (L1210), human T-lymphocyte (CEM) and human cervix carcinoma (HeLa) were suspended at 300,000–500,000 cells/mL of culture medium, and 100 µL of a cell suspension was added to 100 µL of an appropriate dilution of the test compounds in 200 µL-wells of 96-well microtiter plates. After incubation at 37 °C for two (L1210), three (CEM) or four (HeLa) days, the cell number was determined using a Coulter counter. The IC50 was defined as the compound concentration required to inhibit cell proliferation by 50%.

[3] = tested on: human cervix carcinoma (HeLa); assay: as above; assay type: cell-based; conditions: 96 h, concentration inhibiting cell proliferation by 50%, four days incubation, mean of three repeats
Method: as §1, §2

[4] = tested on: murine leukemia (L1210); assay: as above; assay type: cell-based; conditions: Mus musculus, L1210, 48 h; concentration inhibiting cell proliferation by 50%; two days incubation; mean of three repeats
Method: as §1, §2

[5] = tested on: C. elegans; assay type: in vivo, Caenorhabditis elegans; conditions: for C. elegans % survival at 25 µM: after 7 days relative to viability at day 0, mean of at least two repeats
Method: Eggs of a double mutant (glp-4Dsek-1D) of C. elegans were grown on NGM/OP50 agar plates (NGM agar plates on the surface inoculated with 100 µL of an overnight culture of OP50 Escherichia coli and stored at 4 °C until use) at 25 °C until all nematodes had reached the L4 stage. Worms were collected and washed with M9 buffer (3 g/L KH2PO4, 6 g/L Na2HPO4, 5 g/L NaCl, 1 mM MgSO4). For toxicity testing, 40 to 50 worms were suspended in 250 μL M9 (supplemented with 10 µg/mL cholesterol, 75 µg/mL ampicillin and 100 µg/mL kanamycin) buffer in each well of 24-well microtiter plates, in the presence or absence (0.5% DMSO control) of 25, 100 or 200 µM of the test compounds and grown for 7 days at 25 °C. The percentage survival of the worms in the presence or absence of anti-biofilm compounds was calculated after 7 days relative to their viability at day 0.

[6] = tested on: human bone marrow-derived mesenchymal stem cells (MSC); assay: Cytotoxicity against bone cells, trypan blue staining; assay type: cell-based; conditions: for effect on proliferation and viability: after 48h and after 6 days of exposure
Method: (§3) The cytotoxicity of the compounds was measured on cell cultures of two cell types represented in bone tissue, namely human osteoblasts (OB) and human bone marrow-derived mesenchymal stem cells (MSC). These tests were conducted according to ISO 10993-5 cytotoxicity standard. The cells were seeded in a 96-well plate at a density of 5000 cells/cm^2 in cell culture media (Advanced DMEM, 10% FBS, 1× GlutaMAX, 0.05 mg/mL gentamicin) and allowed to attach overnight. […]
(§4) Trypan blue staining: the medium was removed from the wells, and 1/3 trypan blue in DMEM medium was added to the cells, incubated for 3 min, after which trypan blue was removed and DMEM medium was added to the wells. In each of four wells, two microscopy fields were counted for viable (transparent) and dead (blue) cells.

[7] = tested on: human osteoblasts (OB); assay: as above; assay type: cell-based; conditions: for effect on proliferation and viability: after 48h and after 6 days of exposure
Method: as §3, §4

[8] = tested on: human bone marrow-derived mesenchymal stem cells (MSC); assay: Metabolic activity of bone cells, MTT staining; assay type: cell-based; conditions: 12.5 µM, 6 days exposure, MTT staining (results not shown)
Method: (§5) The cytotoxicity of the compounds was measured on cell cultures of two cell types represented in bone tissue, namely human osteoblasts (OB) and human bone marrow-derived mesenchymal stem cells (MSC). These tests were conducted according to ISO 10993-5 cytotoxicity standard. The cells were seeded in a 96-well plate at a density of 5000 cells/cm^2 in cell culture media (Advanced DMEM, 10% FBS, 1× GlutaMAX, 0.05 mg/mL gentamicin) and allowed to attach overnight. The next day the test compounds (12.5 μM) and controls were added to the cells (negative controls were cell culture medium and cell culture medium with 0.5% DMSO background, positive control was 0.05% phenol to show a cytotoxic effect) and incubated for 2h, 48h and 6 days and at each time-point the numbers of viable and dead cells were determined by trypan blue staining, and the metabolic activity was determined with MTT staining.
(§6) MTT: the medium was removed from the wells and 100 μL of medium, supplemented with 10% serum and 0.5 mg/mL MTT was added to the cells. The cells were incubated overnight at 37 °C and 5% CO2. The next day the medium with MTT was removed and 100 μL acidic isopropanol was added. The cells were then centrifuged at 2300 g and 50 μL of the supernatant was transferred to a new 96-well plate. The absorbance was measured at 570 nm and the background was measured at 660 nm. Four wells per condition were examined.

[9] = tested on: human osteoblasts (OB); assay: Metabolic activity of bone cells, MTT staining; assay type: cell-based; conditions: 12.5 µM, 6 days exposure, MTT staining (results not shown)
Method: as §5, §6

[10] = tested on: mesenchymal stem cells (MSC); assay: Calcium assay for osteogenic differentiation potential; assay type: cell-based, human; conditions: 12.5 µM, 5 weeks (Figure 6) or 3 weeks (methods) of exposure
Method: (§7) MSC and OB were cultured in osteogenic medium for 3 and 5 weeks, respectively. The experimental groups included a positive solvent control (osteogenic medium with 0.5% DMSO background), a negative control (medium without osteogenic supplements) and treated samples (osteogenic medium, 0.5% DMSO background and 12.5 µM of test compound). Cell cultures were extracted by 5% trichloroacetic acid (500 μL per sample). O-Cresolphtalein complex was added (Calcium CPC LiquiColor Test®; Stanbio Laboratory, Boerne, TX, USA), and the calcium content was determined spectrophotometrically at 550 nm.
(§8) To determine the DNA content, cells were washed with PBS, and 200 μL of digestion buffer (10 mM Tris, 1 mM EDTA, 0.1% Triton X-100, 0.1 mg/mL proteinase K) was added. Samples were incubated in digestion buffer overnight at 56 °C. The supernatants were drawn off and PicoGreen® dye (Molecular Probes, Eugene, OR, USA) was added to the samples in 1:1 ratio and read in a fluorescent plate reader (excitation 485 nm and emission 528 nm). DNA values were used to normalize the calcium content. Four wells per condition were examined, and two samples from each well were taken for each assay.

[11] = tested on: osteoblasts (OB); assay: as above; assay type: cell-based, human; conditions: 12.5 µM, 3 weeks (Figure 6) or 5 weeks (methods) of exposure
Method: as §7, §8

[12] = tested on: S. Typhimurium biofilm; conditions: concentration preventing biofilm formation (at 25 °C) by 50%; as previously reported ref 13, 14, 15, 16; read-out: BIC50 S. Typhimurium; cited from earlier work
[13] = tested on: P. aeruginosa biofilm; conditions: concentration preventing biofilm formation (at 25 °C) by 50%; as previously reported ref 13, 14, 15, 16; read-out: BIC50 P. aeruginosa; cited from earlier work
[14] = tested on: Caenorhabditis elegans; parameters: method as in PMID 22292413; conditions: cited from earlier work
[15] = tested on: HaCaT keratinocyte cells; parameters: method as in PMID 22292413; conditions: cited from earlier work
[16] = tested on: HMO2, HepG2, HeLa and mouse lymphoma cells; parameters: method as in PMID 12193030, PMID 15165143, PMID 17822294; conditions: including HMO2, HepG2, HeLa and mouse lymphoma cells; cited from earlier work
[17] = 12.5 µM, 48h exposure, trypan blue

## COc1ccc(Cc2[nH]c(=N)n(C)c2Cc2ccc(O)cc2)cc1 [2m, naamine A]
[1]
  ability to inhibit EGFR stimulated DNA synthesis: markedly decreased ability to inhibit

## CCCCNc1ncc(-c2ccc(Br)cc2)[nH]1 [compound 25]
[2]
  IC50: 493 µM
[3]
  IC50: 50.7 µM
[4]
  IC50: 126 µM
[5]
  C. elegans % survival at 25 µM: 102.4%
[5]; 7 days of exposure
  effect on C. elegans survival at 100 µM: none of the compounds significantly affect
[5]; 200 µM, 7 days of exposure
  effect on C. elegans survival at 200 µM: do not significantly affect survival
[6]; 12.5 µM, trypan blue
  effect on proliferation and viability: do not or only slightly reduce
[6]
  survival of cells after 4 weeks of exposure: allow survival
[7]; 12.5 µM, trypan blue
  effect on proliferation and viability: do not or only slightly reduce
[7]
  survival of cells after 4 weeks of exposure: allow survival
[8]
  effect on metabolic activity: slightly enhance
[9]
  effect on metabolic activity: slightly enhance
[10]
  calcium deposition compared to the solvent control (osteogenic differentiation potential): none of the compounds does negatively affect; also recorded: significantly induces
[11]
  calcium deposition compared to the solvent control (osteogenic differentiation potential): none of the compounds does negatively affect
[12]
  IC50: 7.1 µM
[13]
  IC50: 9.8 µM

## C/C(=C\c1ccccc1)Cn1cc(CCCCCc2c[nH]c(N)n2)nn1 [2r]
[14]
  toxicity against Caenorhabditis elegans: lack toxicity
[15]
  effect on HaCaT keratinocyte cells: differential effect

## COc1ccc(Cc2[nH]/c(=N\C3=NC(=O)N(C)C3=O)n(C)c2Cc2cc(OC)c(O)c(OC)c2)cc1 [2k, naamidine H]
[16]
  cytotoxicity to a variety of cell lines: cytotoxic

## Brc1ccc(-c2cnc(NCCCn3cc(C4CC4)nn3)[nH]2)cc1 [compound 40]
[2]
  IC50: 33.6 µM
[3]
  IC50: 67.1 µM
[4]
  IC50: 43.9 µM
[5]
  C. elegans % survival at 25 µM: 82.6%
[5]; 7 days of exposure
  effect on C. elegans survival at 100 µM: none of the compounds significantly affect
[5]; 200 µM, 7 days of exposure
  effect on C. elegans survival at 200 µM: do not significantly affect survival
[6]; 12.5 µM, trypan blue
  effect on proliferation and viability: do not or only slightly reduce
[6]
  survival of cells after 4 weeks of exposure: allow survival
[7]; 12.5 µM, trypan blue
  effect on proliferation and viability: do not or only slightly reduce
[7]
  survival of cells after 4 weeks of exposure: allow survival
[8]
  effect on metabolic activity: slightly enhance
[9]
  effect on metabolic activity: slightly enhance
[10]
  calcium deposition compared to the solvent control (osteogenic differentiation potential): none of the compounds does negatively affect
[11]
  calcium deposition compared to the solvent control (osteogenic differentiation potential): none of the compounds does negatively affect
[12]
  IC50: 2 µM
[13]
  IC50: 72 µM and 71.6 µM

## COc1ccc(Cc2nc(N)n(C)c2Cc2cc(O)c(OC)c(OC)c2)cc1 [2e, naamine C]
[16]
  cytotoxicity to a variety of cell lines: cytotoxic

## Cn1c(C(=O)NCCCc2c[nH]c(N)n2)cc(Br)c1Br [2p]
[14]
  toxicity against Caenorhabditis elegans: lack toxicity
[15]
  effect on HaCaT keratinocyte cells: differential effect

## CCCCCCCCCCCCCNC(=O)CCCc1c[nH]c(N)n1 [2q]
[14]
  toxicity against Caenorhabditis elegans: lack toxicity
[15]
  effect on HaCaT keratinocyte cells: differential effect

## COc1ccc(Cc2[nH]c(=N)n(C)c2Cc2cc(OC)c(O)c(OC)c2)cc1 [2h, naamine G]
[16]
  cytotoxicity to a variety of cell lines: cytotoxic

## CC(C)CNc1ncc(-c2ccc(Cl)cc2)[nH]1 [compound 22]
[2]
  IC50: 297 µM
[3]
  IC50: 172 µM
[4]
  IC50: 336 µM
[5]
  C. elegans % survival at 25 µM: 97.6%
[5]; 7 days of exposure
  effect on C. elegans survival at 100 µM: none of the compounds significantly affect
[5]; 200 µM, 7 days of exposure
  effect on C. elegans survival at 200 µM: do not significantly affect survival
[6]; 12.5 µM, trypan blue
  effect on proliferation and viability: do not or only slightly reduce
[6]
  survival of cells after 4 weeks of exposure: allow survival
[7]; 12.5 µM, trypan blue
  effect on proliferation and viability: do not or only slightly reduce
[7]
  survival of cells after 4 weeks of exposure: allow survival
[8]
  effect on metabolic activity: slightly enhance
[9]
  effect on metabolic activity: slightly enhance
[10]
  calcium deposition compared to the solvent control (osteogenic differentiation potential): none of the compounds does negatively affect; also recorded: significantly (p < 0.05) induces
[11]
  calcium deposition compared to the solvent control (osteogenic differentiation potential): none of the compounds does negatively affect; also recorded: significantly (p < 0.05) induces
[12]
  IC50: 2 µM
[13]
  IC50: 0.9 µM

## COc1ccc(Cn2cc(Cc3ccc(OC)c(OC)c3)nc2/N=C2/NC(=O)N(C)C2=O)cc1 [2i, isonaamidine E]
[16]
  cytotoxicity to a variety of cell lines: cytotoxic

## CCCCCCCCn1c(-c2ccc(Cl)cc2)cnc1N [compound 7]
[2]
  IC50: 357 µM
[3]
  IC50: 4.5 µM
[4]
  IC50: 3.9 µM
[5]
  C. elegans % survival at 25 µM: 86.6%
[5]; 7 days of exposure
  effect on C. elegans survival at 100 µM: none of the compounds significantly affect
[5]; 200 µM, 7 days of exposure
  inhibition of C. elegans survival at 200 µM: more than 50%
[6]; [17]
  reduction of proliferation as compared to the solvent control: > 70%
  reduction of viability as compared to the solvent control: > 70%
[7]; [17]
  reduction of proliferation as compared to the solvent control: > 70%
  reduction of viability as compared to the solvent control: > 70%
[8]
  reduction of metabolic activity as compared to the untreated controls: > 80%
[9]
  reduction of metabolic activity as compared to the untreated controls: > 80%
[12]
  IC50: 5.9 µM
[13]
  IC50: 4 µM
